{"source": "patent US12227512B2", "about": "“Benzimidazoles and methods of using same” (priority 2019, dated 2025)", "key": {"[1]": {"tested_on": "Dengue virus 2 New Guinea C", "assay": "In vitro antiviral screening, Visual (Virus yield reduction)", "settings": "Huh7; for SI90: Visual (Virus yield reduction)/Neutral Red (Toxicity); for EC90: Dengue virus, Visual (Virus yield reduction)"}, "[2]": {"assay": "Neutral Red (Toxicity) of the antiviral screening", "settings": "African green monkey, Vero 76 cells"}, "Vero 76": {"tested_on": "Vero 76", "assay": "Neutral Red (Toxicity) of the antiviral screening", "settings": "Assay No. 3; Neutral Red (Cytopathic effect/Toxicity) line"}, "Zika MR766 [3]": {"tested_on": "Zika MR766", "assay": "In vitro antiviral screening, Visual (Virus yield reduction)", "settings": "Vero 76"}, "[4]": {"assay": "Neutral Red (Toxicity) of the antiviral screening", "settings": "human, Huh7 cells"}, "Zika MR766 [5]": {"tested_on": "Zika MR766", "assay": "In vitro antiviral screening, Neutral Red (Cytopathic effect)", "settings": "Vero 76"}, "[6]": {"assay": "Mouse PK evaluation, plasma, IV", "settings": "CD-1 mice; for concentration at 0.083 h / concentration at 0.25 h / concentration at 0.5 h / concentration at 1 h / concentration at 2 h / concentration at 4 h / concentration at 8 h / concentration at 24 h / AUC(0-inf) / AUC(0-t) / MRT inf / half-life: CD-1, mouse, plasma, 3 mg/kg; for concentration at 0.083 h / concentration at 0.25 h / concentration at 0.5 h / concentration at 1 h / concentration at 2 h / concentration at 4 h / concentration at 8 h / concentration at 24 h: intravenous, Plasma concentration; for AUC(0-inf) / AUC(0-t) / MRT inf / half-life: iv; for AUC(0-inf): AUCInf; for AUC(0-t): AUClast; for MRT inf: MRTInf_obs"}, "[7]": {"tested_on": "Dengue virus 2 New Guinea C", "assay": "In vitro antiviral screening, Neutral Red (Cytopathic effect)", "settings": "Huh7; for SI50: Neutral Red (Cytopathic effect/Toxicity); for EC50: Dengue virus, Neutral Red (Cytopathic effect)"}}, "data": [{"smiles": "CN(C)CCCn1c(N)nc2ccc3c(c21)CC(CO)O3", "note": "(centres unmarked) [DD041]", "values": [{"measurement": "SI90", "setting": "[1]; Assay No. 1", "result": ">10"}, {"measurement": "SI90", "setting": "[1]; Assay No. 2", "result": 14}, {"measurement": "EC90", "setting": "[1]; Huh-7, Assay No. 1", "result": 10, "unit": "µM"}, {"measurement": "EC90", "setting": "[1]; Huh-7, Assay No. 2", "result": 1.83, "unit": "µM"}, {"measurement": "CC50", "setting": "[2]", "result": "> 100", "unit": "µM"}, {"measurement": "CC50", "setting": "Vero 76", "result": "> 100", "unit": "µM"}, {"measurement": "SI90", "setting": "Zika MR766 [3]; Assay No. 3, Visual (Virus yield reduction)/Neutral Red (Toxicity)", "result": ">5.9"}, {"measurement": "EC90", "setting": "Zika MR766 [3]; Zika virus", "result": 17, "unit": "µM"}, {"measurement": "CC50", "setting": "[4]; CC50, Assay No. 1, Neutral Red (Cytopathic effect/Toxicity) line", "result": "> 100", "unit": "µM"}, {"measurement": "CC50", "setting": "[4]; CC50, Assay No. 1, Neutral Red (Toxicity), line of the virus yield reduction assay", "result": "> 100", "unit": "µM"}, {"measurement": "CC50", "setting": "[4]; CC50, Assay No. 2, Neutral Red (Cytopathic effect/Toxicity) line", "result": 26, "unit": "µM"}, {"measurement": "CC50", "setting": "[4]; CC50, Assay No. 2, Neutral Red (Toxicity), line of the virus yield reduction assay", "result": 26, "unit": "µM"}, {"measurement": "SI50", "setting": "Zika MR766 [5]; Assay No. 3, Neutral Red (Cytopathic effect/Toxicity)", "result": ">9.1"}, {"measurement": "EC50", "setting": "Zika MR766 [5]; Zika virus", "result": 11, "unit": "µM"}, {"measurement": "AUC_%Extrap_obs, Mean", "setting": "[6]; 3 mg/kg IV", "result": 1.88, "unit": "%"}, {"measurement": "AUC_%Extrap_obs, Mouse 1", "setting": "[6]; 3 mg/kg IV", "result": 3.73, "unit": "%"}, {"measurement": "AUC_%Extrap_obs, Mouse 2", "setting": "[6]; 3 mg/kg IV", "result": 0.927, "unit": "%"}, {"measurement": "AUC_%Extrap_obs, Mouse 3", "setting": "[6]; 3 mg/kg IV", "result": 0.993, "unit": "%"}, {"measurement": "AUClast/D, Mean", "setting": "[6]; 3 mg/kg IV", "result": 262}, {"measurement": "AUClast/D, Mouse 1", "setting": "[6]; 3 mg/kg IV", "result": 261}, {"measurement": "AUClast/D, Mouse 2", "setting": "[6]; 3 mg/kg IV", "result": 251}, {"measurement": "AUClast/D, Mouse 3", "setting": "[6]; 3 mg/kg IV", "result": 274}, {"measurement": "C0, Mean", "setting": "[6]; 3 mg/kg IV", "result": 1959, "unit": "ng/mL"}, {"measurement": "C0, Mouse 1", "setting": "[6]; 3 mg/kg IV", "result": 2033, "unit": "ng/mL"}, {"measurement": "C0, Mouse 2", "setting": "[6]; 3 mg/kg IV", "result": 1738, "unit": "ng/mL"}, {"measurement": "C0, Mouse 3", "setting": "[6]; 3 mg/kg IV", "result": 2107, "unit": "ng/mL"}, {"measurement": "Cl_obs, Mean", "setting": "[6]; 3 mg/kg IV", "result": 62.5, "unit": "mL/min/kg"}, {"measurement": "Cl_obs, Mouse 1", "setting": "[6]; 3 mg/kg IV", "result": 61.4, "unit": "mL/min/kg"}, {"measurement": "Cl_obs, Mouse 2", "setting": "[6]; 3 mg/kg IV", "result": 65.8, "unit": "mL/min/kg"}, {"measurement": "Cl_obs, Mouse 3", "setting": "[6]; 3 mg/kg IV", "result": 60.3, "unit": "mL/min/kg"}, {"measurement": "Vss_obs, Mean", "setting": "[6]; 3 mg/kg IV", "result": 7.55, "unit": "L/kg"}, {"measurement": "Vss_obs, Mouse 1", "setting": "[6]; 3 mg/kg IV", "result": 5.80, "unit": "L/kg"}, {"measurement": "Vss_obs, Mouse 2", "setting": "[6]; 3 mg/kg IV", "result": 8.48, "unit": "L/kg"}, {"measurement": "Vss_obs, Mouse 3", "setting": "[6]; 3 mg/kg IV", "result": 8.37, "unit": "L/kg"}, {"measurement": "Plasma concentration, Mouse 1", "setting": "[6]; 3 mg/kg IV, 24 h", "result": "BLOQ"}, {"measurement": "concentration at 0.083 h", "setting": "[6]; Mean, 3 mg/kg IV", "result": 1170, "unit": "ng/mL"}, {"measurement": "concentration at 0.25 h", "setting": "[6]; Mean, 3 mg/kg IV", "result": 417, "unit": "ng/mL"}, {"measurement": "concentration at 0.5 h", "setting": "[6]; Mean, 3 mg/kg IV", "result": 281, "unit": "ng/mL"}, {"measurement": "concentration at 1 h", "setting": "[6]; Mean, 3 mg/kg IV", "result": 161, "unit": "ng/mL"}, {"measurement": "concentration at 2 h", "setting": "[6]; Mean, 3 mg/kg IV", "result": 65.7, "unit": "ng/mL"}, {"measurement": "concentration at 4 h", "setting": "[6]; Mean, 3 mg/kg IV", "result": 27.4, "unit": "ng/mL"}, {"measurement": "concentration at 8 h", "setting": "[6]; Mean, 3 mg/kg IV", "result": 8.4, "unit": "ng/mL"}, {"measurement": "concentration at 24 h", "setting": "[6]; Mean, 3 mg/kg IV, 24 h", "result": 1.11, "unit": "ng/mL"}, {"measurement": "concentration at 0.083 h", "setting": "[6]; Mouse 1, 3 mg/kg IV", "result": 1250, "unit": "ng/mL"}, {"measurement": "concentration at 0.25 h", "setting": "[6]; Mouse 1, 3 mg/kg IV", "result": 470, "unit": "ng/mL"}, {"measurement": "concentration at 0.5 h", "setting": "[6]; Mouse 1, 3 mg/kg IV", "result": 322, "unit": "ng/mL"}, {"measurement": "concentration at 1 h", "setting": "[6]; Mouse 1, 3 mg/kg IV", "result": 145, "unit": "ng/mL"}, {"measurement": "concentration at 2 h", "setting": "[6]; Mouse 1, 3 mg/kg IV", "result": 67.5, "unit": "ng/mL"}, {"measurement": "concentration at 4 h", "setting": "[6]; Mouse 1, 3 mg/kg IV", "result": 31.6, "unit": "ng/mL"}, {"measurement": "concentration at 8 h", "setting": "[6]; Mouse 1, 3 mg/kg IV", "result": 9.69, "unit": "ng/mL"}, {"measurement": "concentration at 0.083 h", "setting": "[6]; Mouse 2, 3 mg/kg IV", "result": 1070, "unit": "ng/mL"}, {"measurement": "concentration at 0.25 h", "setting": "[6]; Mouse 2, 3 mg/kg IV", "result": 403, "unit": "ng/mL"}, {"measurement": "concentration at 0.5 h", "setting": "[6]; Mouse 2, 3 mg/kg IV", "result": 255, "unit": "ng/mL"}, {"measurement": "concentration at 1 h", "setting": "[6]; Mouse 2, 3 mg/kg IV", "result": 152, "unit": "ng/mL"}, {"measurement": "concentration at 2 h", "setting": "[6]; Mouse 2, 3 mg/kg IV", "result": 66.4, "unit": "ng/mL"}, {"measurement": "concentration at 4 h", "setting": "[6]; Mouse 2, 3 mg/kg IV", "result": 28.5, "unit": "ng/mL"}, {"measurement": "concentration at 8 h", "setting": "[6]; Mouse 2, 3 mg/kg IV", "result": 6, "unit": "ng/mL"}, {"measurement": "concentration at 24 h", "setting": "[6]; Mouse 2, 3 mg/kg IV, 24 h", "result": 1.05, "unit": "ng/mL"}, {"measurement": "concentration at 0.083 h", "setting": "[6]; Mouse 3, 3 mg/kg IV", "result": 1190, "unit": "ng/mL"}, {"measurement": "concentration at 0.25 h", "setting": "[6]; Mouse 3, 3 mg/kg IV", "result": 377, "unit": "ng/mL"}, {"measurement": "concentration at 0.5 h", "setting": "[6]; Mouse 3, 3 mg/kg IV", "result": 267, "unit": "ng/mL"}, {"measurement": "concentration at 1 h", "setting": "[6]; Mouse 3, 3 mg/kg IV", "result": 187, "unit": "ng/mL"}, {"measurement": "concentration at 2 h", "setting": "[6]; Mouse 3, 3 mg/kg IV", "result": 63.3, "unit": "ng/mL"}, {"measurement": "concentration at 4 h", "setting": "[6]; Mouse 3, 3 mg/kg IV", "result": 22, "unit": "ng/mL"}, {"measurement": "concentration at 8 h", "setting": "[6]; Mouse 3, 3 mg/kg IV", "result": 9.51, "unit": "ng/mL"}, {"measurement": "concentration at 24 h", "setting": "[6]; Mouse 3, 3 mg/kg IV, 24 h", "result": 1.17, "unit": "ng/mL"}, {"measurement": "AUC(0-inf)", "setting": "[6]; Mean, 3 mg/kg IV", "result": 801, "unit": "ng·h/mL"}, {"measurement": "AUC(0-inf)", "setting": "[6]; Mouse 1, 3 mg/kg IV", "result": 814, "unit": "ng·h/mL"}, {"measurement": "AUC(0-inf)", "setting": "[6]; Mouse 2, 3 mg/kg IV", "result": 760, "unit": "ng·h/mL"}, {"measurement": "AUC(0-inf)", "setting": "[6]; Mouse 3, 3 mg/kg IV", "result": 829, "unit": "ng·h/mL"}, {"measurement": "AUC(0-t)", "setting": "[6]; Mean, 3 mg/kg IV", "result": 786, "unit": "ng·h/mL"}, {"measurement": "AUC(0-t)", "setting": "[6]; Mouse 1, 3 mg/kg IV", "result": 784, "unit": "ng·h/mL"}, {"measurement": "AUC(0-t)", "setting": "[6]; Mouse 2, 3 mg/kg IV", "result": 753, "unit": "ng·h/mL"}, {"measurement": "AUC(0-t)", "setting": "[6]; Mouse 3, 3 mg/kg IV", "result": 821, "unit": "ng·h/mL"}, {"measurement": "MRT inf", "setting": "[6]; Mean, 3 mg/kg IV", "result": 2.01, "unit": "h"}, {"measurement": "MRT inf", "setting": "[6]; Mouse 1, 3 mg/kg IV", "result": 1.57, "unit": "h"}, {"measurement": "MRT inf", "setting": "[6]; Mouse 2, 3 mg/kg IV", "result": 2.15, "unit": "h"}, {"measurement": "MRT inf", "setting": "[6]; Mouse 3, 3 mg/kg IV", "result": 2.31, "unit": "h"}, {"measurement": "half-life", "setting": "[6]; T1/2, Mean, 3 mg/kg IV", "result": 3.9, "unit": "h"}, {"measurement": "half-life", "setting": "[6]; T1/2, Mouse 1, 3 mg/kg IV", "result": 2.17, "unit": "h"}, {"measurement": "half-life", "setting": "[6]; T1/2, Mouse 2, 3 mg/kg IV", "result": 4.65, "unit": "h"}, {"measurement": "half-life", "setting": "[6]; T1/2, Mouse 3, 3 mg/kg IV", "result": 4.87, "unit": "h"}, {"measurement": "SI50", "setting": "[7]; Assay No. 1", "result": ">15"}, {"measurement": "SI50", "setting": "[7]; Assay No. 2", "result": 4.6}, {"measurement": "EC50", "setting": "[7]; Huh-7, Assay No. 1", "result": 6.7, "unit": "µM"}, {"measurement": "EC50", "setting": "[7]; Huh-7, Assay No. 2", "result": 5.6, "unit": "µM"}]}]}
